Results: the supplement of paper PMC11208160

Test: recombinant barcode read abundance after kanamycin selection (control-corrected) (log10(CPM+1)); higher = more efficient recombination; sequences stand for … in AGTGCAGAGAAAATCGGCCAGTTTTCTCTGCCTGCAGTCCGCATGCCGT…AGATTTATGCAGCGGACTGCCTTTCTCCCAAAGTGATAAACCGGACAGTATCATGGACCGGTTTTCCCGGTAATCCGTATTTGCAAGGTTGGTTTCACT; site = the 11-nt target
How it was run: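 In a pooled screen in E. coli, targets were paired with target-binding loops of the IS621 bridge RNA. Each oligo carried a promoter, a target, a barcode and the first 104 bridge RNA bases driven by J23119, and was Gibson-cloned into a vector holding the remaining 73 bp and a T7-inducible recombinase before co-electroporation with a donor plasmid. Duplicate platings went onto chloramphenicol/ampicillin LB agar as the control or onto chloramphenicol/ampicillin/kanamycin with 0.1 mM IPTG. Recombination efficiency is the averaged, control-corrected count per million of barcodes at recombinant junctions, given as log10(CPM+1).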
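Further: IS621 recombinase and bridge RNA in Escherichia coli cells.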

Sequence | recombinant barcode read abundance (log10)
CTTTCGCCTTGGGTTCTAACCTGTTGCCT (site CTATCGCCTAG) | 0.0688
CTTTCGCCTTGGGTTCTAACCTGTTGCCT (site CTCTCGCCTAG) | 0.102
CTTTCGCCTTGGGTTCTAACCTGTTGCCT (site CTGTCGCCTAG) | 0.0968
CTTTCGCCTTGGGTTCTAACCTGTTGCCT (site CTTTCGCCTAG) | 0.0534
CTTTGCCCTTGGGTTCTAACCTGTTGCCT (site CATTGCCCTAG) | 0.179
CTTTGCCCTTGGGTTCTAACCTGTTGCCT (site CCTTGCCCTAG) | 0.0734
CTTTGCCCTTGGGTTCTAACCTGTTGCCT (site CGTTGCCCTAG) | 0.0892
CTTTGCCCTTGGGTTCTAACCTGTTGCCT (site CTTTGCCCTAG) | 0.687
GAAAGGGCTTGGGTTCTAACCTGTTGCCT (site GAAAAGGCTAG) | 0.183
GAAAGGGCTTGGGTTCTAACCTGTTGCCT (site GAAACGGCTAG) | 0.0842
GAAAGGGCTTGGGTTCTAACCTGTTGCCT (site GAAAGGGCTAG) | 0.566
GAAAGGGCTTGGGTTCTAACCTGTTGCCT (site GAAATGGCTAG) | 0.0705
GAAATTCCTTGGGTTCTAACCTGTTGCCT (site GAAAATCCTAG) | 0.148
GAAATTCCTTGGGTTCTAACCTGTTGCCT (site GAAACTCCTAG) | 0.266
GAAATTCCTTGGGTTCTAACCTGTTGCCT (site GAAAGTCCTAG) | 0.132
GAAATTCCTTGGGTTCTAACCTGTTGCCT (site GAAATTCCTAG) | 0.371
GAACCTTCTTGGGTTCTAACCTGTTGCCT (site GAACCTTCTAG) | 0.695
GAACCTTCTTGGGTTCTAACCTGTTGCCT (site GAACGATCTAG) | 0.0234
GAACGACCTTGGGTTCTAACCTGTTGCTT (site GAACGACCTAA) | 0.613
GAACGACCTTGGGTTCTAACCTGTTGCTT (site GAACGACCTCA) | 0.0114
GAACGCTCTTGGGTTCTAACCTGTTGCTT (site GAACGCTCTAA) | 0.876
GAACGCTCTTGGGTTCTAACCTGTTGCTT (site TGTAAGACTCT) | 0.225
GAACGGGCTTGGGTTCTAACCTGTTGCGG (site GAACGGGCTCC) | 1.33
GAACGGGCTTGGGTTCTAACCTGTTGCGG (site GGACGGGCTCT) | 0.12
GAAGCTCCTTGGGTTCTAACCTGTTGCGT (site GAAGCTCCTAC) | 2.81
GAAGCTCCTTGGGTTCTAACCTGTTGCGT (site GAGGCTCCTAC) | 0.581

Sequence | recombinant barcode read abundance (log10)
GAAGTAACTTGGGTTCTAACCTGTTGCCT (site GAAGTAACTAG) | 1.18
GAAGTAACTTGGGTTCTAACCTGTTGCCT (site GACGTAACTAG) | 0.194
GAAGTAACTTGGGTTCTAACCTGTTGCCT (site GAGGTAACTAG) | 0.346
GAAGTAACTTGGGTTCTAACCTGTTGCCT (site GATGTAACTAG) | 0.0965
GAATATTCTTGGGTTCTAACCTGTTGCTT (site GAATATTCTAA) | 0.206
GAATATTCTTGGGTTCTAACCTGTTGCTT (site GAATGTTCTAA) | 0.0342
GAATCTACTTGGGTTCTAACCTGTTGCCT (site GAATCTACTAG) | 0.512
GAATCTACTTGGGTTCTAACCTGTTGCCT (site GCATCTACTAG) | 0.195
GAATCTACTTGGGTTCTAACCTGTTGCCT (site GGATCTACTAG) | 0.896
GAATCTACTTGGGTTCTAACCTGTTGCCT (site GTATCTACTAG) | 0.136
GAATCTACTTGGGTTCTAACCTGTTGCTT (site GAATCTACTAA) | 0.095
GAATCTACTTGGGTTCTAACCTGTTGCTT (site GACTCTACTAA) | 0.0804
GAATCTACTTGGGTTCTAACCTGTTGCTT (site GAGTCTACTAA) | 0.122
GAATCTACTTGGGTTCTAACCTGTTGCTT (site GATTCTACTAA) | 0.00713
GAATGGACTTGGGTTCTAACCTGTTGCGA (site CTCATATCTAA) | 0.0913
GAATGGACTTGGGTTCTAACCTGTTGCGA (site GAATGGACTTC) | 2.45
GACAAACCTTGGGTTCTAACCTGTTGCCT (site GACAAACCTAG) | 0.433
GACAAACCTTGGGTTCTAACCTGTTGCCT (site GTCAAACCTAA) | 0.00743
GACACAGCTTGGGTTCTAACCTGTTGCCT (site GAAACAGCTAG) | 0.145
GACACAGCTTGGGTTCTAACCTGTTGCCT (site GACACAGCTAG) | 1.26
GACACAGCTTGGGTTCTAACCTGTTGCCT (site GAGACAGCTAG) | 0.118
GACACAGCTTGGGTTCTAACCTGTTGCCT (site GATACAGCTAG) | 0.372
GACACTTCTTGGGTTCTAACCTGTTGCCT (site GACACTTCTAG) | 0.133
GACACTTCTTGGGTTCTAACCTGTTGCCT (site GTCAATTCTAG) | 0.0949
GACATATCTTGGGTTCTAACCTGTTGCTG (site GACATATCTCA) | 0.403
GACATATCTTGGGTTCTAACCTGTTGCTG (site GACATATCTTG) | 0.165

Sequence | recombinant barcode read abundance (log10)
GACCAGCCTTGGGTTCTAACCTGTTGCCT (site GACCAGCCTAA) | 0.277
GACCAGCCTTGGGTTCTAACCTGTTGCCT (site GACCAGCCTAC) | 0.0691
GACCAGCCTTGGGTTCTAACCTGTTGCCT (site GACCAGCCTAG) | 0.98
GACCAGCCTTGGGTTCTAACCTGTTGCCT (site GACCAGCCTAT) | 0.359
GACCAGTCTTGGGTTCTAACCTGTTGCGG (site GACCAGTCTCC) | 1.97
GACCAGTCTTGGGTTCTAACCTGTTGCGG (site GTCCAGGCTCC) | 0.128
GACCGCTCTTGGGTTCTAACCTGTTGCTA (site GACCGCTCTTA) | 1.2
GACCGCTCTTGGGTTCTAACCTGTTGCTA (site GTCAGCTCTTA) | 0.37
GACCGTCCTTGGGTTCTAACCTGTTGCCA (site GACCGTCCTTG) | 0.761
GACCGTCCTTGGGTTCTAACCTGTTGCCA (site GACTGTCCTTC) | 0.472
GACCGTCCTTGGGTTCTAACCTGTTGCTT (site GACCGTCCTAA) | 1.1
GACCGTCCTTGGGTTCTAACCTGTTGCTT (site GACCGTCCTAC) | 0.447
GACCGTCCTTGGGTTCTAACCTGTTGCTT (site GACCGTCCTAG) | 0.252
GACCGTCCTTGGGTTCTAACCTGTTGCTT (site GACCGTCCTAT) | 1.19
GACCGTGCTTGGGTTCTAACCTGTTGCCT (site GACCGAGCTAG) | 0.0758
GACCGTGCTTGGGTTCTAACCTGTTGCCT (site GACCGCGCTAG) | 0.103
GACCGTGCTTGGGTTCTAACCTGTTGCCT (site GACCGGGCTAG) | 0.268
GACCGTGCTTGGGTTCTAACCTGTTGCCT (site GACCGTGCTAG) | 1.38
GACCTACCTTGGGTTCTAACCTGTTGCAG (site GACCTACCTCT) | 2.18
GACCTACCTTGGGTTCTAACCTGTTGCAG (site GACCTCCCTCA) | 0.136
GACCTATCTTGGGTTCTAACCTGTTGCCT (site GACCTATCTAG) | 1.39
GACCTATCTTGGGTTCTAACCTGTTGCCT (site TGTGCTACTGT) | 0.213
GACCTCCCTTGGGTTCTAACCTGTTGCTG (site GACCTACCTCT) | 0.219
GACCTCCCTTGGGTTCTAACCTGTTGCTG (site GACCTCCCTCA) | 2.16
GACGCTTCTTGGGTTCTAACCTGTTGCAT (site GACGCAACTAT) | 1
